Test results: patent US8349883B2, “Hydroxamate-based inhibitors of deacetylases B” (Novartis AG, priority 2008, dated 2013)

Columns and labels:
HDAC-1 = molecular target: T1, HDAC-1 (Homo sapiens, UniProt Q13547); assay: HDAC inhibition assay (purified GST-HDAC protein); assay type: biochemical
T1 construct: made in house; host or cells: Sf9 or Sf21 insect cells (baculovirus, donor vector pFB-GSTX3)
Excerpt: The baculovirus donor vector pFB-GSTX3 was used to generate a recombinant baculovirus that can express the HDAC polypeptide. Transfer vectors containing the HDAC coding region were transfected into the DH10Bac cell line (GIBCO) and plated on selective agar plates. Colonies without insertion of the fusion sequence into the viral genome (carried by the bacteria) were blue. Single, white colonies were picked and viral DNAs (bacmid) were isolated from the bacteria by standard plasmid purification procedures. Sf9 cells or Sf21 (American Type Culture Collection) cells were then transfected in […] flasks with the viral DNA using Cellfectin reagent.
Virus-containing media was collected from the transfected cell culture and used for infection to increase its titer. Virus-containing media obtained after two rounds of infection was used for large-scale protein expression. For large-scale protein expression 100 cm^2 round tissue culture plates were seeded with 5×10^7 cells/plate and infected with 1 mL of virus-containing media (at an approximately MOI of 5). After 3 days, the cells were scraped off the plate and centrifuged at 500 rpm for 5 minutes. Cell pellets from 10-20, 100 cm^2 plates, were re-suspended in 50 mL of ice-cold lysis buffer (25 mM tris-HCl, pH 7.5, 2 mM EDTA, 1% NP-40, 1 mM DTT, 1 mM P MSF). The cells were stirred on ice for 15 minutes and then centrifuged at 5,000 rpms for 20 minutes.
The centrifuged cell lysate was loaded onto a 2 mL glutathione-sepharose column (Pharmacia) and was washed thrice with 10 mL of 25 mM tris-HCl, pH 7.5, 2 mM EDTA, 1 mM DTT, 200 mM NaCl. The GST-tagged proteins were then eluted by 10 applications (1 mL each) of 25 mM tris-HCl, pH 7.5, 10 mM reduced-glutathione, 100 mM NaCl, 1 mM DTT, 10% glycerol and stored at −70° C.
HDAC assays with purified GST-HDAC protein were carried out in a final volume of 30 μL containing 15 ng of GST-HDAC protein, 20 mM tris-HCl, pH 7.5, 1 mM MnCl2, 10 mM MgCl2, 1 mM DTT, 3 μg/mL poly(Glu,Tyr) 4:1, 1% DMSO, 2.0 μM ATP (γ-[^33P]-ATP 0.1 μCi). The activity was assayed in the presence or absence of inhibitors. The assay was carried out in 96-well plates at ambient temperature for 15 minutes under conditions described below and terminated by the addition of 20 μL of 125 mM EDTA. Subsequently, 40 μL of the reaction mixture were transferred onto EMMOBILON-PVDF membrane (Millipore) previously soaked for 5 minutes with methanol, rinsed with water, then soaked for 5 minutes with 0.5% H3PO4 and mounted on vacuum manifold with disconnected vacuum source. After spotting all samples, a vacuum was connected and each well rinsed with 200 μL 0.5% H3PO4. Membranes were removed and washed four times on a shaker with 1.0% H3PO4, once with ethanol. Membranes were counted after drying at ambient temperature, mounting in Packard TopCount 96-well frame, and addition of 10 μL/well of MICROSCINT™ (Packard). IC50 values were calculated by linear regression analysis of the percentage inhibition of each compound in duplicate, at 4 concentrations (usually 0.01, 0.1, 1 and 10 μM).
• Input: 3×4 μL stopped assay on IMMOBILON membrane, not washed • Background (3 wells): assay with H2O instead of enzyme • Positive control (4 wells): 3% DMSO instead of compound • Bath control (1 well): no reaction mix
IC50 values were calculated by logarithmic regression analysis of the percentage inhibition of each compound at 4 concentrations (usually 3- or 10-fold dilution series starting at 10 μM). In each experiment, the actual inhibition by reference compound was used for normalization of IC50 values to the basis of an average value of the reference inhibitor: Normalized IC50=measured IC50 average ref IC50/measured ref IC50
Example: Reference inhibitor in experiment 0.4 μM, average 0.3 μM, Test compound in experiment 1.0 μM, normalization: 0.3/0.4=0.75 μM
For example, known HDAC inhibitors or a synthetic derivative thereof may be used as reference compounds.

HCT116 = HCT116 IC50; assay type: cell-based; details: Homo sapiens, HCT-116

T1 sequence (Q13547 whole entry, species assumed): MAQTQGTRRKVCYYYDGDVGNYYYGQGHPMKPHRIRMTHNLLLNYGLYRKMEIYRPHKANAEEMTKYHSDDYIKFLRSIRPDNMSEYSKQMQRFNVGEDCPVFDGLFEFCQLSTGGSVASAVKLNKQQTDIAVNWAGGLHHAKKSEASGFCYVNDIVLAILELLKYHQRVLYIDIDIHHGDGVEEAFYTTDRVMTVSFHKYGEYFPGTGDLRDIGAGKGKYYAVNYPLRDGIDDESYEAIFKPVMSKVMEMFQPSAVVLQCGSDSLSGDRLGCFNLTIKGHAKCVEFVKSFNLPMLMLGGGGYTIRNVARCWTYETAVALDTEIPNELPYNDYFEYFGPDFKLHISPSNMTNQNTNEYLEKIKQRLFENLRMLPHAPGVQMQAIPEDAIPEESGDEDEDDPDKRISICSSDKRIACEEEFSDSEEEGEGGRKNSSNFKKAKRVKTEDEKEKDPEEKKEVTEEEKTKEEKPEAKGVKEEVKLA

Compound: O=C(/C=C/c1ccc(C2CCCN2CC(O)c2ccc(Cl)cc2)cc1)NO (centres unmarked) [Compound 31, (E)-3-(4-{1-[2-(4-Chloro-phenyl)-2-hydroxy-ethyl]-pyrrolidin-2-yl}-phenyl)-N-hydroxy-acrylamide]
- IC50 (HDAC-1): 5 nM
- IC50 (HCT116): 67 nM

Compound: O=C(/C=C/c1ccc(C2CCCN2CCCc2ccccc2)cc1)NO (centres unmarked) [Compound 33, (E)-N-Hydroxy-3-{4-[1-(3-phenyl-propyl)-pyrrolidin-2-yl]-phenyl}-acrylamide]
- IC50 (HDAC-1): 5 nM
- IC50 (HCT116): 39 nM

Compound: O=C(/C=C/c1ccc(C2CCCN2CCc2ccccn2)cc1)NO (centres unmarked) [Compound 34, (E)-N-Hydroxy-3-{4-[1-(2-pyridin-2-yl-ethyl)-pyrrolidin-2-yl]-phenyl}-acrylamide]
- IC50 (HDAC-1): 21 nM
- IC50 (HCT116): 77 nM

Compound: O=C(/C=C/c1ccc([C@@H]2CCCN2CCc2ccsc2)cc1)NO [Compound 35, (E)-N-Hydroxy-3-{4-[(S)-1-(2-thiophen-3-yl-ethyl)-pyrrolidin-2-yl]-phenyl}-acrylamide]
- IC50 (HDAC-1): 5 nM
- IC50 (HCT116): 9 nM

Compound: CC(C)CCN1CCCC1c1ccc(/C=C/C(=O)NO)cc1 (centres unmarked) [Compound 36, (E)-N-Hydroxy-3-{4-[1-(3-methyl-butyl)-pyrrolidin-2-yl]-phenyl}-acrylamide]
- IC50 (HDAC-1): 10 nM
- IC50 (HCT116): 40 nM

Compound: O=C(/C=C/c1ccc(C2CCCN2CC2CCCC2)cc1)NO (centres unmarked) [Compound 40, (E)-3-[4-(1-Cyclopentylmethyl-pyrrolidin-2-yl)-phenyl]-N-hydroxy-acrylamide]
- IC50 (HDAC-1): 9 nM
- IC50 (HCT116): 42 nM

Compound: O=C(/C=C/c1ccc([C@@H]2CCCN2CCC2CCCCC2)cc1)NO [Compound 41, (E)-3-{4-[(S)-1-(2-Cyclohexyl-ethyl)-pyrrolidin-2-yl]-phenyl}-N-hydroxy-acrylamide]
- IC50 (HDAC-1): 7 nM
- IC50 (HCT116): 48 nM

Compound: O=C(/C=C/c1ccc([C@@H]2CCCN2CCC2CCOCC2)cc1)NO [Compound 42, (E)-N-Hydroxy-3-(4-{(S)-1-[2-(tetrahydro-pyran-4-yl)-ethyl]-pyrrolidin-2-yl}-phenyl)-acrylamide]
- IC50 (HDAC-1): 32 nM
- IC50 (HCT116): 53 nM

Compound: O=C(/C=C/c1ccc([C@@H]2CCCN2CCc2cnn3ccccc23)cc1)NO [Compound 43, (E)-N-Hydroxy-3-{4-[(S)-1-(2-pyrazolo[1,5-a]pyridin-3-yl-ethyl)-pyrrolidin-2-yl]-phenyl}-acrylamide]
- IC50 (HDAC-1): 1 nM
- IC50 (HCT116): 1.1 nM

Compound: Cc1nn2ccccc2c1CCN1CCC[C@H]1c1ccc(/C=C/C(=O)NO)cc1 [Compound 44, (E)-N-Hydroxy-3-(4-{(S)-1-[2-(2-methyl-pyrazolo[1,5-a]pyridin-3-yl)-ethyl]-pyrrolidin-2-yl}-phenyl)-acrylamide]
- IC50 (HDAC-1): 0.6 nM
- IC50 (HCT116): 0.38 nM

Compound: Cc1nn2ccccc2c1CCN1CCC[C@@H]1c1ccc(/C=C/C(=O)NO)cc1 [Compound 45, (E)-N-Hydroxy-3-(4-{(R)-1-[2-(2-methyl-pyrazolo[1,5-a]pyridin-3-yl)-ethyl]-pyrrolidin-2-yl}-phenyl)-acrylamide]
- IC50 (HDAC-1): 2.4 nM
- IC50 (HCT116): 8 nM

Compound: O=C(/C=C/c1ccc([C@@H]2CCCN2CCc2c(C(F)(F)F)nn3ccccc23)cc1)NO [Compound 46, (E)-N-Hydroxy-3-(4-{(S)-1-[2-(2-trifluoromethyl-pyrazolo[1,5-a]pyridin-3-yl)-ethyl]-pyrrolidin-2-yl}-phenyl)-acrylamide]
- IC50 (HDAC-1): 3 nM
- IC50 (HCT116): 0.6 nM

Compound: CCc1nn2ccccc2c1CCN1CCC[C@H]1c1ccc(/C=C/C(=O)NO)cc1 [Compound 47, (E)-3-(4-{(S)-1-[2-(2-Ethyl-pyrazolo[1,5-a]pyridin-3-yl)-ethyl]-pyrrolidin-2-yl}-phenyl)-N-hydroxy-acrylamide]
- IC50 (HDAC-1): 1 nM
- IC50 (HCT116): 0.35 nM

Compound: CC(C)(O)c1nn2ccccc2c1CCN1CCC[C@H]1c1ccc(/C=C/C(=O)NO)cc1 [Compound 48, (E)-N-Hydroxy-3-[4-((S)-1-{2-[2-(1-hydroxy-1-methyl-ethyl)-pyrazolo[1,5-a]pyridin-3-yl]-ethyl}-pyrrolidin-2-yl)-phenyl]-acrylamide]
- IC50 (HDAC-1): 2 nM
- IC50 (HCT116): 3 nM

Compound: O=C(/C=C/c1ccc([C@@H]2CCCN2CCc2c(-c3cnccn3)nn3ccccc23)cc1)NO [Compound 49, (E)-N-Hydroxy-3-(4-{(S)-1-[2-(2-pyrazin-2-yl-pyrazolo[1,5-a]pyridin-3-yl)-ethyl]-pyrrolidin-2-yl}-phenyl)-acrylamide]
- IC50 (HDAC-1): 3 nM
- IC50 (HCT116): 3 nM

Compound: O=C(/C=C/c1ccc([C@@H]2CCCN2CCc2c(-c3cccnc3)nn3ccccc23)cc1)NO [Compound 50, (E)-N-Hydroxy-3-(4-{(S)-1-[2-(2-pyridin-3-yl-pyrazolo[1,5-a]pyridin-3-yl)-ethyl]-pyrrolidin-2-yl}-phenyl)-acrylamide]
- IC50 (HDAC-1): 1 nM
- IC50 (HCT116): 0.4 nM

Compound: O=C(/C=C/c1ccc([C@@H]2CCCN2CCc2c[nH]c3ncccc23)cc1)NO [Compound 51, (E)-N-Hydroxy-3-(4-{(S)-1-[2-(1H-pyrrolo[2,3-b]pyridin-3-yl)-ethyl]-pyrrolidin-2-yl}-phenyl)-acrylamide]
- IC50 (HDAC-1): 1.2 nM
- IC50 (HCT116): 4 nM

Compound: CC(C)(C)c1[nH]c2ncccc2c1CCN1CCC[C@H]1c1ccc(/C=C/C(=O)NO)cc1 [Compound 52, (E)-3-(4-{(S)-1-[2-(2-tert-Butyl-1H-pyrrolo[2,3-b]pyridin-3-yl)-ethyl]-pyrrolidin-2-yl}-phenyl)-N-hydroxy-acrylamide]
- IC50 (HDAC-1): 2.7 nM
- IC50 (HCT116): 4.3 nM

Compound: O=C(/C=C/c1ccc(C2CCCN2CCc2cnc3ccccn23)cc1)NO (centres unmarked) [Compound 53, (E)-N-Hydroxy-3-{4-[1-(2-imidazo[1,2-a]pyridin-3-yl-ethyl)-pyrrolidin-2-yl]-phenyl}-acrylamide]
- IC50 (HDAC-1): 0.9 nM
- IC50 (HCT116): 1 nM

Compound: Cc1nc2ccccn2c1CCN1CCC[C@H]1c1ccc(/C=C/C(=O)NO)cc1 [Compound 54, (E)-N-Hydroxy-3-(4-{(S)-1-[2-(2-methyl-imidazo[1,2-a]pyridin-3-yl)-ethyl]-pyrrolidin-2-yl}-phenyl)-acrylamide]
- IC50 (HDAC-1): 3 nM
- IC50 (HCT116): 4 nM

Compound: Cc1nn(-c2ccccc2)c(C)c1CCN1CCC[C@H]1c1ccc(/C=C/C(=O)NO)cc1 [Compound 55, (E)-3-(4-{(S)-1-[2-(3,5-Dimethyl-1-phenyl-1H-pyrazol-4-yl)-ethyl]-pyrrolidin-2-yl}-phenyl)-N-hydroxy-acrylamide]
- IC50 (HDAC-1): 2 nM
- IC50 (HCT116): 1.1 nM

Compound: Cc1noc(-c2ccccc2)c1CCN1CCC[C@H]1c1ccc(/C=C/C(=O)NO)cc1 [Compound 56, (E)-N-Hydroxy-3-(4-{(S)-1-[2-(3-methyl-5-phenyl-isoxazol-4-yl)-ethyl]-pyrrolidin-2-yl}-phenyl)-acrylamide]
- IC50 (HDAC-1): 1.7 nM
- IC50 (HCT116): 5 nM

Compound: Cc1oc(-c2ccccc2)nc1CCN1CCC[C@H]1c1ccc(/C=C/C(=O)NO)cc1 [Compound 57, (E)-N-Hydroxy-3-(4-{(S)-1-[2-(5-methyl-2-phenyl-oxazol-4-yl)-ethyl]-pyrrolidin-2-yl}-phenyl)-acrylamide]
- IC50 (HDAC-1): 1.4 nM
- IC50 (HCT116): 1 nM

Compound: O=C(/C=C/c1ccc([C@@H]2CCCN2CCc2cn[nH]c2)cc1)NO [Compound 58, (E)-N-Hydroxy-3-(4-{(S)-1-[2-(1H-pyrazol-4-yl)-ethyl]-pyrrolidin-2-yl}-phenyl)-acrylamide]
- IC50 (HDAC-1): 7 nM
- IC50 (HCT116): 36 nM

Compound: Cn1cc(CCN2CCC[C@H]2c2ccc(/C=C/C(=O)NO)cc2)cn1 [Compound 59, (E)-N-Hydroxy-3-(4-{(S)-1-[2-(1-methyl-1H-pyrazol-4-yl)-ethyl]-pyrrolidin-2-yl}-phenyl)-acrylamide]
- IC50 (HDAC-1): 8 nM
- IC50 (HCT116): 35 nM
